This is an account of results in publication PMC12521615, “Accurate affinity models for SH2 domains from peptide binding assays and free‐energy regression” (Protein Science : A Publication of the Protein Society, 2025).

SMILES strings stand for the structures. Non-standard residues stand in square brackets, D forms with d. Residues, ends and D or L forms follow the SMILES beside them. pY = N[C@@H](Cc1ccc(OP(=O)(O)O)cc1)C(=O)O

T1 sequence (P06241 142-248): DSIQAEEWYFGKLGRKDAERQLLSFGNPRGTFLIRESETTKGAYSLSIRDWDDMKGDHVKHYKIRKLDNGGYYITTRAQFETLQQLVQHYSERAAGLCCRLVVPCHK

One assay has as its target T1, Fyn SH2 domain (Homo sapiens, UniProt P06241).
T1 construct: The human SH2 domains from Fyn (142–248), Lyn (121–228); His6-SUMO (N, cleaved yes); host or cells: Escherichia coli C43(DE3) with BirA helper plasmid
Put plainly: biochemical. Format: binding.
Details: not given
The text has this: The human SH2 domains from Fyn (142–248), Lyn (121–228), Blk (116–222), and Yes (150–257) kinases were PCR‐amplified from plasmids encoding the full‐length proteins and cloned using the NEBuilder® HiFi DNA Assembly Master Mix (NEB) in a pET plasmid backbone that was PCR‐amplified with the primers pETXbaI_for and pETXhoI_rev (these and all other primers are defined in Table S7) from the pET‐His6‐SUMO‐Grb2(SH2), as reported before (Li et al., [2023]), thus adding an N‐terminal His6‐SUMO tag and a C‐terminal AviTag® for biotinylation. The SH2 plasmids are available via Addgene: pET28‐His6‐SUMO‐Fyn‐SH2‐AviTag (214202), pET28‐His6‐SUMO‐Blk‐SH2‐AviTag (214204), pET28‐His6‐SUMO‐Lyn‐SH2‐AviTag (214207), pET28‐His6‐SUMO‐Yes‐SH2‐AviTag (214208), and pET28‐His6‐SUMO‐cSrc‐SH2‐AviTag (214230). For expression and parallel biotinylating of the SH2 domain product, Escherichia coli C43(DE3) cells carrying a BirA encoding helper plasmid were transformed with the respective SH2 domain expression construct and plated to grow overnight at 37°C on a streptomycin and kanamycin (100 μg/mL both) LB‐agar plate. The colonies were collected in 10 mL of TB medium and used to inoculate 1 L of TB medium and grown at 37°C and 215 rpm. Upon reaching an OD600 of 0.5, the expression of the SH2 domains was induced by adding IPTG up to 0.5 mM and biotin up to 250 μM, and the expressing culture was incubated at 18°C for 16–18 h. After removing the medium through centrifugation, the cell pellets were snap‐frozen in liquid N2 and stored at −80°C until purification. To purify the biotinylated SH2 domains, the cell pellets were resuspended in lysis buffer (50 mM Tris, pH 7.5, 300 mM NaCl, 20 mM imidazole, 10% glycerol), supplementing them with 2 mM β‐mercaptoethanol and 1× protease inhibitor cocktail before lysis by sonication (Fisherbrand Sonic Dismembrator). The soluble fraction separated after centrifugation at 33,000 g was run on a HisTrap HP column (Cytiva), then washed with 10 CV of the lysis buffer followed by 10 CV of wash buffer (50 mM Tris, pH 7.5, 50 mM NaCl, 10 mM imidazole, 10% glycerol). Next, the protein was eluted with elution buffer (50 mM Tris, pH 7.5, 50 mM NaCl, 250 mM imidazole, 10% glycerol) directly onto a 5 mL HiTrap Q HP anion exchange column (Cytiva). The biotinylated SH2 domain was then eluted from the anion exchange column with an NaCl gradient (50 mM Tris, pH 7.5, 0.05–1 M NaCl, 1 mM TCEP‐HCl), and the His6‐SUMO tag was cleaved using 0.05 mg/mL Ulp1 protease. The biotinylated SH2 domain was then collected in a flowthrough after running the cleavage reaction over a HisTrap HP column. Finally, the biotinylated SH2 domain in the flowthrough was run on a HiLoad 16/600 Superdex 75 pg size exclusion column (Cytiva) in storage buffer (20 mM HEPES, pH 7.5, 150 mM NaCl, 10% glycerol). The purified biotinylated SH2 domains were aliquoted, snap‐frozen in liquid N2, and stored at −80°C.
Measured binding constants (K D) from competition mode fluorescence polarization experiments were obtained using the purified SH2 domains used for the selection and chosen sets of peptides with a phosphorylated tyrosine exactly as described previously (Li et al., [2023]). […] (c‐Src SH2 consensus) was used as the probe, and for the Grb2 SH2 domain, the fluorescently labeled peptide FITC‐Ahx‐FDDPS(pY)VNVQN (Ahx = 6‐aminohexanoic acid) from the Y177 phospho‐tyrosine site of BCR. Before performing the competition mode fluorescence polarization measurement, the K D of the probes for the respective SH2 domains was first measured in a direct mode of fluorescence polarization.
By Kd is commonly meant the constant that tells how readily two partners part at equilibrium. `CC[C@H](C)[C@H](NC(=O)[C@@H]1CCCN1C(=O)[C@H](CCC(N)=O)NC(C)=O)C(=O)N[C@@H](Cc1ccccc1)C(=O)N[C@@H](CCC(=O)O)C(=O)NCC(=O)N[C@@H](Cc1ccc(OP(=O)(O)O)cc1)C(=O)N[C@@H](C)C(=O)N[C@@H](CC(C)C)C(=O)N1CCC[C@H]1C(=O)N[C@@H](Cc1c[nH]cn1)C(=O)N[C@@H](C)C(=O)NCC(N)=O` [ACTA1 pY171] (Ac-QPIFEG[pY]ALPHAG-NH2) displayed a Kd of 47.3 nM.

`CC(=O)N[C@@H](CCC(N)=O)C(=O)N[C@@H](CO)C(=O)N[C@@H](CC(C)C)C(=O)N[C@@H](CCC(=O)O)C(=O)N[C@@H](CCCCN)C(=O)N[C@@H](CO)C(=O)N[C@@H](Cc1ccc(OP(=O)(O)O)cc1)C(=O)N[C@@H](CCC(=O)O)C(=O)N[C@@H](CC(C)C)C(=O)N[C@@H](CC(C)C)C(=O)N[C@@H](CC(=O)O)C(=O)NCC(=O)NCC(N)=O` [ACTB pY240 P243L] (Ac-QSLEKS[pY]ELLDGG-NH2) came in with an equilibrium dissociation constant (Kd) of 141 nM.

Molecule `CC[C@H](C)[C@H](NC(=O)CNC(=O)[C@H](CCC(=O)O)NC(=O)[C@@H](NC(=O)[C@H](CCC(N)=O)NC(C)=O)C(C)C)C(=O)N[C@@H](CO)C(=O)N[C@@H](Cc1ccc(OP(=O)(O)O)cc1)C(=O)N[C@@H](CC(=O)O)C(=O)N[C@@H](Cc1ccccc1)C(=O)N[C@H](C(=O)N1CCC[C@H]1C(=O)N[C@H](C(=O)NCC(N)=O)[C@@H](C)O)[C@@H](C)CC` [CBS pY308 G307S] (Ac-QVEGIS[pY]DFIPTG-NH2) returned a Kd of 185 nM.

Regarding `CC(=O)N[C@@H](CCC(N)=O)C(=O)N[C@@H](CC(C)C)C(=O)N[C@@H](Cc1c[nH]cn1)C(=O)N[C@H](C(=O)N[C@@H](Cc1c[nH]cn1)C(=O)N1CCC[C@H]1C(=O)N[C@@H](Cc1ccc(OP(=O)(O)O)cc1)C(=O)N[C@@H](CCC(=O)O)C(=O)N[C@@H](CCCCN)C(=O)N[C@H](C(=O)N[C@@H](CCC(=O)O)C(=O)N[C@@H](CC(=O)O)C(=O)NCC(N)=O)C(C)C)C(C)C` [Syn-F-1] (Ac-QLHVHP[pY]EKVEDG-NH2), the Kd is 30.2 nM.

Staying with this assay, now noted: Table S3, unpaired validation; competition fluorescence polarization; probe FITC-Ahx-GDG-pY-EEISPLLL-NH2 0.4 nM; [SH2] 4.12 nM; mean; read-out: Kd mean.
In the case of `CC(=O)N[C@@H](CCC(N)=O)C(=O)N[C@@H](CO)C(=O)N[C@@H](CC(C)C)C(=O)N[C@@H](CCC(=O)O)C(=O)N[C@@H](CCCCN)C(=O)N[C@@H](CO)C(=O)N[C@@H](Cc1ccc(OP(=O)(O)O)cc1)C(=O)N[C@@H](CCC(=O)O)C(=O)N[C@@H](CC(C)C)C(=O)N1CCC[C@H]1C(=O)N[C@@H](CC(=O)O)C(=O)NCC(=O)NCC(N)=O` [ACTB pY240] (Ac-QSLEKS[pY]ELPDGG-NH2), the Kd is 159 nM.

For `CC[C@H](C)[C@H](NC(=O)CNC(=O)[C@H](CCC(=O)O)NC(=O)[C@@H](NC(=O)[C@H](CCC(N)=O)NC(C)=O)C(C)C)C(=O)NCC(=O)N[C@@H](Cc1ccc(OP(=O)(O)O)cc1)C(=O)N[C@@H](CC(=O)O)C(=O)N[C@@H](Cc1ccccc1)C(=O)N[C@H](C(=O)N1CCC[C@H]1C(=O)N[C@H](C(=O)NCC(N)=O)[C@@H](C)O)[C@@H](C)CC` [CBS pY308] (Ac-QVEGIG[pY]DFIPTG-NH2), the Kd was determined as 126 nM.

`CC[C@H](C)[C@H](NC(=O)[C@H](CC(C)C)NC(=O)[C@H](CO)NC(=O)[C@H](Cc1ccc(OP(=O)(O)O)cc1)NC(=O)[C@H](CCCNC(=N)N)NC(=O)[C@H](CCCNC(=N)N)NC(=O)[C@H](CCC(N)=O)NC(=O)[C@H](CC(=O)O)NC(=O)[C@H](CO)NC(=O)[C@H](CCC(N)=O)NC(C)=O)C(=O)N[C@@H](CC(=O)O)C(=O)N1CCC[C@H]1C(=O)NCC(N)=O` [CLIP2 pY972 R977P] (Ac-QSDQRR[pY]SLIDPG-NH2): the dissociation constant Kd turned out to be 27 nM.

On to `CC[C@H](C)[C@H](NC(=O)[C@H](CC(C)C)NC(=O)[C@H](CO)NC(=O)[C@H](Cc1ccc(OP(=O)(O)O)cc1)NC(=O)[C@H](CCCNC(=N)N)NC(=O)[C@H](CCCNC(=N)N)NC(=O)[C@H](CCC(N)=O)NC(=O)[C@H](CC(=O)O)NC(=O)[C@H](CO)NC(=O)[C@H](CCC(N)=O)NC(C)=O)C(=O)N[C@@H](CC(=O)O)C(=O)N[C@@H](CCCNC(=N)N)C(=O)NCC(N)=O` [CLIP2 pY972] (Ac-QSDQRR[pY]SLIDRG-NH2), for which the Kd was 78.5 nM.
